In experiment [1] the test system is EGF-induced Erk1/2 phosphorylation. Description: EGF-induced Erk1/2 phosphorylation in H1975 cells (immunoblot). The experiment is classed as cell-based, human. Here is the method: (§1) For biochemical studies, H1975 cells were serum-starved overnight followed by treatment with vehicle or compound 11a-1 for 3 hours, and then either left unstimulated or stimulated with 5 ng/ml EGF (Sigma, St. Louis, Mo.) for 60 minutes. Lysates were then resolved by SDS-PAGE and the protein phosphorylation levels were detected by immunoblot analysis. Specifically, cells were lysed in lysis buffer (1.0% Nonidet P-40, 50 mM Tris-HCl (pH 7.4), 150 mM NaCl, 5 mM EDTA, 2 mM NaVO3, 10 mM NaF) plus a protease inhibitor mixture available from Roche (Basel, Switzerland) and centrifuged at 10,000 rpm for 5 minutes at 4° C. Supernatants were collected and protein concentration was determined using the BCA protein assay (ThermoFisher Scientific, Rockford, Ill.). Equal amount of protein extracts were mixed with gel loading buffer and separated on SDS-PAGE. After electrophoresis, the proteins were transferred onto nitrocellulose membranes and nonspecific binding was blocked with 5% nonfat dry milk in Tris-buffered saline containing 0.1% Tween-20 (TBS-T). Membranes were then probed with various antibodies overnight at 4° C. on a rocker. After incubation, membranes were washed with TBS-T and incubated with appropriate horseradish peroxidase (HRP)-conjugated secondary antibodies for 1 hour at room temperature. Finally, the proteins on the membranes were detected using SuperSignal West Dura Luminol/Enhancer solution (ThermoFisher Scientific, Rockford, Ill.) and membranes were analyzed using Bio-Rad ChemiDoc XRS Imaging System.
(A western blot detects proteins with antibodies after separation by electrophoresis.)

The next experiment deals with PTPα (Homo sapiens (Human), UniProt P18433). As to the kind of experiment: PTP selectivity panel, pNPP. The experiment is classed as biochemical, mammalian. The conditions noted are these: pNPP at Km.
The subject of experiment [2] is phosphorylation of SHP2, Akt and Erk1/2. Description: Phosphorylation of SHP2, Akt and Erk1/2 in 32D cells bearing KITD814V (western blot). Type of experiment: cell-based. The conditions noted are these: incubated 2 hours. Here is the method: FIG. 8C depicts 32D myeloid cells bearing KITD814V that were starved of serum and growth factors for 6 hours and incubated with the indicated concentration of 11a-1 for 2 hours as analyzed in Example 6. After treatment, cells were lysed and equal amount of protein lysates were subjected to western blot analysis using indicated antibodies.

The subject of experiment [3] is Erk1/2 and Akt phosphorylation. Description: Erk1/2 and Akt phosphorylation in SKBR3 cells recovered from Matrigel (immunoblot). Type of experiment: cell-based. The following applies: 1 μM to 10 μM, 4 days in Matrigel. Here is the method: (§2) Approximately 300,000 SKBR3 cells were seeded into 150 μl of growth factor reduced Matrigel (Corning, Corning, N.Y.) in 35 mm dishes. To 3 dishes for each condition, 2 mL of media containing either 10 μl vehicle (DMSO) or compound 11a-1 at the indicated concentration was then added. Every 24 hours, the cells were imaged with a NIKON SMZ1500 stereomicroscoppe. The cross-sectional area of individual colonies from each image were measured using Adobe Photoshop software. After 4 days, the cells were recovered from the Matrigel and lysed in PLC buffer containing protease inhibitor cocktail (Cat. No. P8340; Sigma-Aldrich, St. Louis, Mo.). Lysates were then resolved by SDS-PAGE and relative levels of the indicated proteins were detected by immunoblot analysis.

The next experiment deals with SKBR3 cells. Description: SKBR3 breast cancer cell growth in Matrigel. The experiment is classed as cell-based. Here is the method: as §2
For the next experiment, the target named is PEZ (Homo sapiens (Human), UniProt Q15678). Description: PTP selectivity panel, pNPP. Type of experiment: biochemical, mammalian. The following applies: pNPP at Km.
For another experiment, the target named is PTPμ (Homo sapiens (Human), UniProt P28827). As to the kind of experiment: PTP selectivity panel, pNPP. The experiment is classed as biochemical, mammalian. The conditions noted are these: pNPP at Km.
In the next experiment the test system is Paxillin (pY118). Description: Paxillin (pY118) phosphorylation in H1975 cells (immunoblot). Type of experiment: cell-based, human. Here is the method: as §1
The subject of experiment [4] is primary low density bone marrow cells bearing KITD814V. Description: Proliferation of primary bone marrow cells bearing KITD814V. Type of experiment: cell-based, C57BL/6 mice. The following applies: 1 μM and 5 μM, compared to II-B08. Here is the method:
FIG. 8B is a graph depicting WT hematopoietic stem and progenitor cells bearing KITD814V that were starved of serum and growth factors for 6 hours and subjected to proliferation assay in the presence or absence of indicated concentration of II-B08 or 11a-1 as analyzed in Example 6. Bars denote the mean thymidine incorporation (CPM±SD) performed in triplicate from one experiment. *p<0.05.
To further determine the effect of II-B08 and compound 11a-1 on primary bone marrow cells bearing oncogenic KITD814V, primary low density bone marrow cells from C57BL/6 mice were transduced with KITD814V and sorted cells were subjected to a proliferation assay in the presence or absence of the SHP2 inhibitors, II-B08 and compound 11a-1. To express WT KIT and KITD814V receptors in bone marrow cells, low density bone marrow cells were collected from WT mice, and pre-stimulated in IMDM supplemented with 20% FBS, 2% penicillin/streptomycin, and cytokines (100 ng/mL SCF, 100 ng/mL TPO, 50 ng/mL FLT3-L and 4 ng/mL IL-6) for 48 hours prior to retroviral infection on fibronectin fragments (Retronectin) in non-tissues culture plates. On the third day, cells were infected with 2 mL of high-titer retroviral supernatants for WT KIT or KITD814V prepared as described above. A second shot of viral infection was given 24 hours later. […]

The structures appear in SMILES notation. “Also recorded” adds a separate entry of the source.

Chain of PTPα (P18433 whole entry, looked up): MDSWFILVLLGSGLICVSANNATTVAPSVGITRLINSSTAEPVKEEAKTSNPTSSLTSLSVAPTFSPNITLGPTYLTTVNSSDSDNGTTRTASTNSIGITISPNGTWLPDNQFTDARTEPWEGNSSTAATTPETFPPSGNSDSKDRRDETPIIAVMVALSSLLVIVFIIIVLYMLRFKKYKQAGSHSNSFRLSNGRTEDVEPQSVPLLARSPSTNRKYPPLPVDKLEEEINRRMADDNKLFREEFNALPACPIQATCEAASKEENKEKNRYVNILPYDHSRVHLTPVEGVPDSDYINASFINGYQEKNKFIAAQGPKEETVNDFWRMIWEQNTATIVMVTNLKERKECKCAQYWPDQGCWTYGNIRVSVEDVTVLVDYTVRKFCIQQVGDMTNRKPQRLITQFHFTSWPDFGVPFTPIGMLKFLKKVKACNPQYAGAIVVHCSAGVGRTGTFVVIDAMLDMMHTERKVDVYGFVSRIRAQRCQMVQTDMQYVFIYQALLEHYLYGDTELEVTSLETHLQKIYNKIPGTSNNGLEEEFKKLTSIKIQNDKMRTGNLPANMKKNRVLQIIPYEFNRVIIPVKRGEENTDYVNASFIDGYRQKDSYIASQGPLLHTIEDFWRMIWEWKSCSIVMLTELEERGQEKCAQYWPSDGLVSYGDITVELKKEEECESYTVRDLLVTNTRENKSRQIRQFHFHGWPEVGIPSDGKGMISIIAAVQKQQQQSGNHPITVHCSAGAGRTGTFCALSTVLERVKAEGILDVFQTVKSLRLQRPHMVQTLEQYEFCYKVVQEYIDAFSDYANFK
Chain of PEZ (Q15678 whole entry, species assumed): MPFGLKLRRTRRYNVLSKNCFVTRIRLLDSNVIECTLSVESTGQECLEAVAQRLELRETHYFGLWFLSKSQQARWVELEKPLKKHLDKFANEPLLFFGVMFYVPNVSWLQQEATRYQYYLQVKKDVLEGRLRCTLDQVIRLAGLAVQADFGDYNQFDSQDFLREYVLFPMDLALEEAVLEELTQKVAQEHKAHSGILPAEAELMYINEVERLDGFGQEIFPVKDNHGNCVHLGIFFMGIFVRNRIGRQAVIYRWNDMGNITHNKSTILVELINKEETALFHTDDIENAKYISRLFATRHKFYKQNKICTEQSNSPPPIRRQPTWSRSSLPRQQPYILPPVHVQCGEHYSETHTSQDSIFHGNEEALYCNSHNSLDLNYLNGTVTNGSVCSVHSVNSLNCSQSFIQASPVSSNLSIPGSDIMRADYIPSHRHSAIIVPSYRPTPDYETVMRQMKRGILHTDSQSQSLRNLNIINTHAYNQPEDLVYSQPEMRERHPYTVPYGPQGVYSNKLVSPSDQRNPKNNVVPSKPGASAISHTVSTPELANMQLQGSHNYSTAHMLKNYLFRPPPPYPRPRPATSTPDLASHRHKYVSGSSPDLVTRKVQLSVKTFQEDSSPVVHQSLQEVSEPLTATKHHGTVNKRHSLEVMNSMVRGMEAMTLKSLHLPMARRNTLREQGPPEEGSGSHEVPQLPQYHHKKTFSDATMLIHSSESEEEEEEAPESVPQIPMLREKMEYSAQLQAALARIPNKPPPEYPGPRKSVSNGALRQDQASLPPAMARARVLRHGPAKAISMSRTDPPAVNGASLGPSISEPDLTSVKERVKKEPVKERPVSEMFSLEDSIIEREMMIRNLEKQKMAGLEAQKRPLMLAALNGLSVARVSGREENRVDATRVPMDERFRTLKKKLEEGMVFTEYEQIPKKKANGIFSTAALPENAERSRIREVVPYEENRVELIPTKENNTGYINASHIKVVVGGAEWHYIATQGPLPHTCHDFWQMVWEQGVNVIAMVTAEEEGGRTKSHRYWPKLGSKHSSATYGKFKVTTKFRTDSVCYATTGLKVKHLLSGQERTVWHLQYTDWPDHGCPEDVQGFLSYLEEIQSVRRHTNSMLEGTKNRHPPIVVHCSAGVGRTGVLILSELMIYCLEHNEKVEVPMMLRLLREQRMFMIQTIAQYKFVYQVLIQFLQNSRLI
Chain of PTPμ (P28827 21-1452): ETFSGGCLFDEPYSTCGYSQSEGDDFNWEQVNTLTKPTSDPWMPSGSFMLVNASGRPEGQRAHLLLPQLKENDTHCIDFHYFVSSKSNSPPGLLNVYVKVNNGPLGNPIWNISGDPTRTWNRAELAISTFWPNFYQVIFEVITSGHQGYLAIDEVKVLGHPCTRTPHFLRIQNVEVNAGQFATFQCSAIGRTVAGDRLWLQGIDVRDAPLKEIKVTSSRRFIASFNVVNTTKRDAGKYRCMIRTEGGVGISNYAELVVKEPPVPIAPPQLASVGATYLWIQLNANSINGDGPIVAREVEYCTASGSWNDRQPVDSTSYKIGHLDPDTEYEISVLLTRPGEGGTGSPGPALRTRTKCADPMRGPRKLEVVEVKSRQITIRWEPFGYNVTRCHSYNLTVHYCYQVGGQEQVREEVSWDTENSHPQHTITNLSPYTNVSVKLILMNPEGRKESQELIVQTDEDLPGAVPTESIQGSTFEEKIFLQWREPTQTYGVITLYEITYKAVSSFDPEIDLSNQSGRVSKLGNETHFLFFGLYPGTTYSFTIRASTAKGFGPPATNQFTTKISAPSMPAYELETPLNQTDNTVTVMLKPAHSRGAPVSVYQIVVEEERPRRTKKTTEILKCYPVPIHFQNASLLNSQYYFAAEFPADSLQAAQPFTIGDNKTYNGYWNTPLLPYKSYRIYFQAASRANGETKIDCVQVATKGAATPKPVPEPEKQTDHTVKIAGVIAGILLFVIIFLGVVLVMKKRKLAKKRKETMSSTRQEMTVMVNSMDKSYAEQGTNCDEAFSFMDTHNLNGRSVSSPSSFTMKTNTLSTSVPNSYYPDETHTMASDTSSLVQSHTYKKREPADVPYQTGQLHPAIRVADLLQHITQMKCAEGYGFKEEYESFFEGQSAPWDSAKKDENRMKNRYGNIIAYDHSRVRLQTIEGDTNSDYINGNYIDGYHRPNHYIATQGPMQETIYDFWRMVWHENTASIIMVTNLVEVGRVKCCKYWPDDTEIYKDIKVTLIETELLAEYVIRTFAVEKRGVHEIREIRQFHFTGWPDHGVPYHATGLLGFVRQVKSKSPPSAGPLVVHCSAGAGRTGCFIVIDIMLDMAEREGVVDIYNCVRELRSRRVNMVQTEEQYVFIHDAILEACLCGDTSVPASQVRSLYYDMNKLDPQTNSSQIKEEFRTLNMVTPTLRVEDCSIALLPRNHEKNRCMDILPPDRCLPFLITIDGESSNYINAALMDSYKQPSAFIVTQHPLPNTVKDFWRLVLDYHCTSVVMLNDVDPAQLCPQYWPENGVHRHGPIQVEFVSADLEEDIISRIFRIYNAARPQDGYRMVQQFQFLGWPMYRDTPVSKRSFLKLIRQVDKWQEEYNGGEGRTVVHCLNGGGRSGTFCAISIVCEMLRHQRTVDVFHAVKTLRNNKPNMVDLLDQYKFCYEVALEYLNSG

Turning to `Cn1c(-c2cccc(NC(=O)C(=O)Nc3ccc(-c4ccsc4)cc3)c2)c(I)c2cc(C(=O)O)c(O)cc21` [11a-1, 6-hydroxy-3-iodo-1-methyl-2-(3-(2-oxo-2-((4-(thiophen-3-yl)phenyl)amino)acetamido)phenyl)-1H-indole-5-carboxylic acid], the “reduction of Erk1/2 phosphorylation” value in [1] (H1975 cells, 2 μM) is listed as 40%. The “effect on EGF-induced Erk1/2 phosphorylation” value in [1] (H1975 cells, dose-dependent) was “effectively reduced; also recorded: decreased”. The “ability to inhibit EGF-mediated Erk1/2 activation in SHP2 knocked down cells” value in [1] (SHP2 knocked down with siRNA) is on record as “blunted”. The figures for the half-maximal inhibitory concentration (IC50) against PTPα, against PEZ and at PTPμ were greater than 100 µM, 5.3 ± 0.2 µM and 3.3 ± 0.2 µM, respectively. The “phosphorylation of SHP2, Akt and Erk1/2 in KITD814V bearing 32D cells” value in experiment [2] is “dose dependent inhibition”. Also, in experiment [3], the “Erk1/2 and Akt phosphorylation in SKBR3 cells” value is “concordantly inhibited”. The “growth of SKBR3 cells in Matrigel” value in the experiment on SKBR3 cells (3 μM, within 24 hours) is listed as “potently inhibited”. In addition, in the experiment on SKBR3 cells (SKBR3, over 4 days, indicated concentrations), the “ErbB2+ breast cancer cell growth in a 3D Matrigel environment” value is “inhibited”. In addition, the “augmentation of Paxillin phosphorylation” value in the experiment with Paxillin (pY118) (2 μM) turned out to be 30%. The “effect on EGF induced Paxillin (Y118) phosphorylation” value in the experiment on Paxillin (pY118) (dose-dependent) is listed as “dose-dependently increased”. Further, the “growth of primary bone marrow cells bearing KITD814V” value in experiment [4] is “significant reduced growth”.
